Measurements taken from patent publication US10772324B2, “Aqueous adjuvant-compositions” (CLARIANT FINANCE (BVI) LIMITED, priority 2012, dated 2020).

Tests used:
Assay in all cases: Greenhouse trial: effect of adjuvants on activity of glyphosate IPA (fresh weight)
Assay type in all cases: in vivo
[1] = system: Solanum nigrum L. (SOLNI); conditions: fresh weight relative to untreated plant, 14 days after application; 20.3 g a.e./ha glyphosate IPA; adjuvant 0.25 wt % in spray solution
Procedure: (§1) For the purpose of determining the biological activity, greenhouse trials were carried out with glyphosate on Echinochloa crus-galli (L.) Beauv. (ECHCG), Cirsium arvense L. (CIRAR), and Solanum nigrum L. (SOLNI). The plants were cultivated in a greenhouse under 14 hours of irradiation with light at a temperature of 19/14 (±0.5°) C. (day/night) and a relative humidity of 70/80 (±5)% (day/night). The light was supplied via high-pressure sodium lamps, high-pressure mercury lamps, and fluorescent tubes, producing a power of 70 W/m^2 at the leaf level. The plants were grown in 12 cm diameter plastic pots filled with a mixture of sand and humus in a sand:humus ratio of 1:2 by volume.
(§2) The pots were placed on an under-soil watering mat, which was wetted daily with a medium-strength nutrient solution. Following their appearance at the substrate surface, seedlings were thinned out to five (ECHCG), two (CIRAR), or one (SOLNI) plant per pot for the activity tests.
(§3) The spray solutions were applied using a laboratory sprayer operated with compressed air and fitted with a Teejet TP8003E nozzle at an application rate of 200 l/ha to the plants at 303 kPa. ECHCG was treated at the two- to three-leaf stage; CIRAR and SOLNI were treated at the four-leaf stage.
(§4) For the more differentiated examination of the adjuvant effect, the glyphosate active ingredient was underdosed, meaning that the plants are not completely killed. This was done using aqueous solutions of glyphosate-isopropylammonium salt (glyphosate IPA). The amount of glyphosate used was 33.8 g a.e./ha glyphosate IPA (corresponding to 1.0 mmol or 0.17 g a.e./l for a liquid volume of […]) in the case of ECHCG, and at 20.3 g a.e./ha glyphosate IPA (corresponding to […] or 0.10 g a.e./l at a liquid volume of 200 l/ha) for CIRAR and SOLNI. […]
(§5) The activity of the various adjuvants was assessed 14 days after application, by determining the mass of the plant parts still present (fresh weight; FW), and was reported as a percentage fraction, relative to the untreated plant (Table 3).

[2] = system: Cirsium arvense L. (CIRAR); conditions: fresh weight relative to untreated plant, 14 days after application; 20.3 g a.e./ha glyphosate IPA; adjuvant 0.25 wt % in spray solution
Procedure: as §1, §2, §3, §4, §5

[3] = system: Echinochloa crus-galli (L.) Beauv. (ECHCG); conditions: fresh weight relative to untreated plant, 14 days after application; 33.8 g a.e./ha glyphosate IPA; adjuvant 0.25 wt % in spray solution
Procedure: as §1, §2, §3, §4, §5

glyphosate-isopropylammonium salt [Glyphosate IPA]
FW in % (SOLNI) [1]: 84.5% | FW in % (CIRAR) [2]: 95.9% | FW in % (ECHCG) [3]: 74.3%
